Data from patent publication US10875855B2 (priority 2011, dated 2020).
Where two headings read alike, the source gives them in different places.

What was measured:
[1] = tested on: influenza A virus (A/PR/8/34); assay: MDCK cytopathic effect (CPE) cell protection assay, ATP detection; format: cell-based
[2] = tested on: influenza A virus (A/PR/8/34); assay: microbe, parasite or virus in culture; format: cell-based
[3] = Influenza A virus, PR/8, MDCK, 72 h, Table 1, MDCK cells, A/PR/8/34, 72 hours, 50% cell protection, mean all, class symbol, read-out: MDCK IC50
[4] = Influenza A virus, PR/8, Table 1, mean all, class symbol, read-out: bDNA EC99
[5] = Influenza A virus, PR/8, Table 1, viral RNA 50% of control wells, mean all, class symbol, read-out: bDNA EC50
[6] = Table 1, mean all, class symbol
[7] = Table 1, MDCK cells, A/PR/8/34, 72 hours, 50% cell protection, mean all, class symbol, read-out: MDCK IC50
[8] = Table 1, viral RNA 50% of control wells, mean all, class symbol, read-out: bDNA EC50

## O=C(O)CC(Nc1nc(-c2c[nH]c3ncc(F)cc23)ncc1F)C12CCC(CC1)C2 (racemic) [Compound 95, (+/−)-3-(Bicyclo[2.2.1]heptan-1-yl)-3-(5-fluoro-2-(5-fluoro-1H-pyrrolo[2,3-b]pyridin-3-yl)pyrimidin-4-ylamino)propanoic acid]
[1]; [3]
  IC50: < 300 nM
[2]; [4]
  EC99: 0.3 to 3.3 µM
[2]; [5]
  EC50: < 300 nM

## CC(C)(C)C(Nc1nc(-c2c[nH]c3ncc(F)cc23)ncc1F)C1CC1C(=O)O (single isomer, unassigned) [Compound 51, 2-(1-((5-fluoro-2-(5-fluoro-1H-pyrrolo[2,3-b]pyridin-3-yl)pyrimidin-4-yl)amino)-2,2-dimethylpropyl)cyclopropanecarboxylic acid]
[1]; [3]
  IC50: < 300 nM
[2]; [5]
  EC50: < 300 nM
[2]; [6]
  bDNA EC99 (uM): C (EC99 (mean all)>3.3 μM)

## CC(C)(C)C(Nc1nc(-c2c[nH]c3ncc(F)cc23)ncc1F)C1CC1C(=O)O (single isomer, unassigned) [Compound 52, 2-(1-((5-fluoro-2-(5-fluoro-1H-pyrrolo[2,3-b]pyridin-3-yl)pyrimidin-4-yl)amino)-2,2-dimethylpropyl)cyclopropanecarboxylic acid]
[1]; [7]
  IC50: < 300 nM
[2]; [6]
  bDNA EC99 (uM): B (0.3 μM≤EC99 (mean all)≤3.3 μM)
[2]; [8]
  EC50: < 300 nM

## CC(C)(C)[C@H](CC(=O)O)Nc1nc(-c2c[nH]c3ncc(Cl)cc23)ncc1F [Compound 3, (S)-3-((2-(5-chloro-1H-pyrrolo[2,3-b]pyridin-3-yl)-5-fluoropyrimidin-4-yl)amino)-4,4-dimethylpentanoic acid]
[1]; [3]
  IC50: 300 to 3300 nM
[2]; [4]
  EC99: > 3.3 µM
[2]; [5]
  EC50: 300 to 3300 nM

## CC(C)(C)[C@H](CC(=O)O)Nc1nc(-c2c[nH]c3ncc(F)cc23)ncc1F [Compound 4, (S)-3-((5-fluoro-2-(5-fluoro-1H-pyrrolo[2,3-b]pyridin-3-yl)pyrimidin-4-yl)amino)-4,4-dimethylpentanoic acid]
[1]; [3]
  IC50: > 3300 nM
[2]; [4]
  EC99: > 3.3 µM
[2]; [5]
  EC50: > 3300 nM

## CC(C)(C)[C@@H](CC(=O)O)Nc1nc(-c2n[nH]c3ncc(F)cc23)ncc1F [Compound 5, (R)-3-((5-fluoro-2-(5-fluoro-1H-pyrazolo[3,4-b]pyridin-3-yl)pyrimidin-4-yl)amino)-4,4-dimethylpentanoic acid]
[1]; [3]
  IC50: < 300 nM
[2]; [4]
  EC99: < 0.3 µM
[2]; [5]
  EC50: < 300 nM

## CC(C)(C)[C@@H](CC(=O)O)Nc1nc(-c2n[nH]c3ncc(F)cc23)c(F)cc1F [Compound 6, (R)-3-((3,5-difluoro-6-(5-fluoro-1H-pyrazolo[3,4-b]pyridin-3-yl)pyridin-2-yl)amino)-4,4-dimethylpentanoic acid]
[1]; [3]
  IC50: < 300 nM
[1]; Influenza A virus, PR/8, MDCK, exemplary data, MDCK cell protection, read-out: IC50
  IC50: 4 nM
[2]; [4]
  EC99: < 0.3 µM
[2]; [5]
  EC50: < 300 nM
[2]; Influenza A virus, PR/8, exemplary data, bDNA, read-out: EC50
  EC50: 15 nM
[2]; exemplary data, bDNA
  EC99: 0.082 µM

## CC(C)(C)[C@@H](CC(=O)O)Nc1nc(-c2c[nH]c3ncc(F)cc23)c(C#N)cc1F [Compound 7, (R)-3-(5-cyano-3-fluoro-6-(5-fluoro-1H-pyrrolo[2,3-b]pyridin-3-yl)pyridin-2-ylamino)-4,4-dimethylpentanoic acid]
[1]; [3]
  IC50: < 300 nM
[2]; [4]
  EC99: < 0.3 µM
[2]; [5]
  EC50: < 300 nM

## CC1([C@@H](CC(=O)O)Nc2nc(-c3c[nH]c4ncc(F)cc34)c(C#N)cc2F)CCCC1 [Compound 8, (R)-3-(5-cyano-3-fluoro-6-(5-fluoro-1H-pyrrolo[2,3-b]pyridin-3-yl)pyridin-2-ylamino)-3-(1-methylcyclopentyl)propanoic acid]
[1]; [7]
  IC50: < 300 nM
[2]; [8]
  EC50: < 300 nM

## CC(C)(C)[C@@H](CS(=O)(=O)O)Nc1nc(-c2c[nH]c3ncc(Cl)cc23)ncc1F [Compound 10, (S)-2-((2-(5-chloro-1H-pyrrolo[2,3-b]pyridin-3-yl)-5-fluoropyrimidin-4-yl)amino)-3,3-dimethylbutane-1-sulfonic acid]
[1]; [3]
  IC50: < 300 nM
[2]; [4]
  EC99: < 0.3 µM
[2]; [5]
  EC50: < 300 nM

## CC(C)(C)[C@@H](CS(=O)(=O)O)Nc1nc(-c2c[nH]c3ncc(F)cc23)ncc1F [Compound 11, (S)-2-(5-fluoro-2-(5-fluoro-1H-pyrrolo[2,3-b]pyridin-3-yl)pyrimidin-4-ylamino)-3,3-dimethylbutane-1-sulfonic acid]
[1]; [3]
  IC50: < 300 nM
[2]; [4]
  EC99: < 0.3 µM
[2]; [5]
  EC50: < 300 nM

## CC1(C(CC(=O)O)Nc2nc(-c3c[nH]c4ncc(F)cc34)c(C#N)cc2F)CCCC1 (centres unmarked) [Compound 13]
[1]; [3]
  IC50: < 300 nM
[2]; [4]
  EC99: < 0.3 µM
[2]; [5]
  EC50: < 300 nM

## CC1([C@@H](CC(=O)O)Nc2nc(-c3c[nH]c4ncc(F)cc34)ncc2F)CCCC1 [Compound 14]
[1]; [3]
  IC50: < 300 nM
[2]; [4]
  EC99: < 0.3 µM
[2]; [5]
  EC50: < 300 nM

## CC1([C@H](CC(=O)O)Nc2nc(-c3c[nH]c4ncc(F)cc34)ncc2F)CCCC1 [Compound 15]
[1]; [3]
  IC50: 300 to 3300 nM
[2]; [4]
  EC99: > 3.3 µM
[2]; [5]
  EC50: 300 to 3300 nM

## CCC(C)(C)C(CC(=O)O)Nc1nc(-c2c[nH]c3ncc(F)cc23)ncc1F (centres unmarked) [Compound 16, 3-((5-fluoro-2-(5-fluoro-1H-pyrrolo[2,3-b]pyridin-3-yl)pyrimidin-4-yl)amino)-4,4-dimethylhexanoic acid]
[1]; [3]
  IC50: < 300 nM
[2]; [5]
  EC50: < 300 nM
[2]; [6]
  bDNA EC99 (uM): A (EC99 (mean all)<0.3 μM)

## CCC(C)(C)C(CC(=O)O)Nc1nc(-c2c[nH]c3ncc(F)cc23)ncc1F (centres unmarked) [Compound 17, 3-((5-fluoro-2-(5-fluoro-1H-pyrrolo[2,3-b]pyridin-3-yl)pyrimidin-4-yl)amino)-4,4-dimethylhexanoic acid]
[1]; [7]
  IC50: 300 to 3300 nM
[2]; [6]
  bDNA EC99 (uM): C (EC99 (mean all)>3.3 μM)
[2]; [8]
  EC50: 300 to 3300 nM

## CCC(C)(C)C(CC(=O)O)Nc1nc(-c2c[nH]c3ncc(F)cc23)c(C#N)cc1F (centres unmarked) [Compound 18, 3-[[5-cyano-3-fluoro-6-(5-fluoro-1H-pyrrolo[2,3-b]pyridin-3-yl)-2-pyridyl]amino]-4,4-dimethyl-hexanoic acid]
[1]; [3]
  IC50: < 300 nM
[2]; [4]
  EC99: < 0.3 µM
[2]; [5]
  EC50: < 300 nM

## CNS(=O)(=O)C[C@@H](Nc1nc(-c2c[nH]c3ncc(F)cc23)ncc1F)C(C)(C)C [Compound 19, (S)-2-(5-fluoro-2-(5-fluoro-1H-pyrrolo[2,3-b]pyridin-3-yl)pyrimidin-4ylamino)-N,3,3-trimethylbutane-1-sulfonamide]
[1]; [3]
  IC50: < 300 nM
[2]; [4]
  EC99: < 0.3 µM
[2]; [5]
  EC50: < 300 nM

## CC(C)(C)[C@@H](CCC(=O)O)Nc1nc(-c2c[nH]c3ncc(F)cc23)ncc1F [Compound 20, (R)-4-((5-fluoro-2-(5-fluoro-1H-pyrrolo[2,3-b]pyridin-3-yl)pyrimidin-4-yl)amino)-5,5-dimethylhexanoic acid]
[1]; [3]
  IC50: < 300 nM
[2]; [4]
  EC99: < 0.3 µM
[2]; [5]
  EC50: < 300 nM

## CC(C)(C)[C@@H](CS(=O)(=O)NC1CC1)Nc1nc(-c2c[nH]c3ncc(F)cc23)ncc1F [Compound 21, (S)—N-Cyclopropyl-2-(5-fluoro-2-(5-fluoro-1H-pyrrolo[2,3-b]pyridin-3-yl)pyrimidin-4-ylamino)-3,3-dimethylbutane-1-sulfonamide]
[1]; [3]
  IC50: < 300 nM
[2]; [4]
  EC99: < 0.3 µM
[2]; [5]
  EC50: < 300 nM

## CC(C)(C)[C@@H](CS(N)(=O)=O)Nc1nc(-c2c[nH]c3ncc(F)cc23)ncc1F [Compound 22, (S)-2-(5-fluoro-2-(5-fluoro-1H-pyrrolo[2,3-b]pyridin-3-yl)pyrimidin-4-ylamino)-3,3-dimethylbutane-1-sulfonamide]
[1]; [3]
  IC50: < 300 nM
[2]; [4]
  EC99: 0.3 to 3.3 µM
[2]; [5]
  EC50: < 300 nM

## CCOC(=O)CC[C@@H](Nc1nc(-c2c[nH]c3ncc(F)cc23)ncc1F)C(C)(C)C [Compound 23, (R)-ethyl 4-((5-fluoro-2-(5-fluoro-1H-pyrrolo[2,3-b]pyridin-3-yl)pyrimidin-4-yl)amino)-5,5-dimethylhexanoate]
[1]; [3]
  IC50: 300 to 3300 nM
[2]; [4]
  EC99: > 3.3 µM
[2]; [5]
  EC50: 300 to 3300 nM

## CC(C)(C)[C@@H](CO)Nc1nc(-c2c[nH]c3ncc(F)cc23)c(C#N)cc1F [Compound 24, (S)-5-fluoro-2-(5-fluoro-1H-pyrrolo[2,3-b]pyridin-3-yl)-6-((1-hydroxy-3,3-dimethylbutan-2-yl)amino)nicotinonitrile]
[1]; [3]
  IC50: < 300 nM
[2]; [4]
  EC99: < 0.3 µM
[2]; [5]
  EC50: < 300 nM

## CC(C)(C)[C@@H](CS(=O)(=O)O)Nc1nc(-c2c[nH]c3ncc(F)cc23)c(C#N)cc1F [Compound 25, (S)-2-(5-cyano-3-fluoro-6-(5-fluoro-1H-pyrrolo[2,3-b]pyridin-3-yl)pyridin-2-ylamino)-3,3-dimethylbutane-1-sulfonic acid]
[1]; [3]
  IC50: < 300 nM
[2]; [4]
  EC99: < 0.3 µM
[2]; [5]
  EC50: < 300 nM

## CC(C)(C)[C@@H](CO)Nc1nc(-c2c[nH]c3ncc(F)cc23)ncc1F [Compound 32, (S)-2-(5-fluoro-2-(5-fluoro-1H-pyrrolo[2,3-b]pyridin-3-yl)pyrimidin-4-ylamino)-3,3-dimethylbutane-1-ol]
[1]; [3]
  IC50: < 300 nM
[2]; [4]
  EC99: < 0.3 µM
[2]; [5]
  EC50: < 300 nM

## CCNS(=O)(=O)C[C@@H](Nc1nc(-c2c[nH]c3ncc(F)cc23)ncc1F)C(C)(C)C [Compound 33, (S)—N-Ethyl-2-(5-fluoro-2-(5-fluoro-1H-pyrrolo[2,3-b]pyridin-3-yl)pyrimidin-4-ylamino)-3,3-dimethylbutane-1-sulfonamide]
[1]; [3]
  IC50: < 300 nM
[2]; [4]
  EC99: < 0.3 µM
[2]; [5]
  EC50: < 300 nM

## CCCNS(=O)(=O)C[C@@H](Nc1nc(-c2c[nH]c3ncc(F)cc23)ncc1F)C(C)(C)C [Compound 34, (S)-2-(5-Fluoro-2-(5-fluoro-1H-pyrrolo[2,3-b]pyridin-3-yl)pyrimidin-4-ylamino)-3,3-dimethyl-N-propylbutane-1-sulfonamide]
[1]; [3]
  IC50: < 300 nM
[2]; [4]
  EC99: 0.3 to 3.3 µM
[2]; [5]
  EC50: < 300 nM
